Key:
Details in all cases: Homo sapiens
A498 = experiment: In vitro cytotoxic activity against renal (A 498) cancer cell line.; format: functional
DU-145 = experiment: In vitro cytotoxic activity against prostate (DU-145) cancer cell line.; format: functional
M14 = experiment: In vitro cytotoxic activity against melanoma (M 14) cancer cell line.; format: functional
NCI/ADR-RES = experiment: In vitro cytotoxic activity against ADR resistant breast cancer (MCF-7-ADR) cell line.; format: functional
SW-620 = experiment: In vitro cytotoxic activity against colon (SW 620) cancer cell line.; format: functional
SK-OV-3 = experiment: In vitro cytotoxic activity against Ovarian (SK-OV3) cell line.; format: functional
NCI-H522 = experiment: In vitro cytotoxic activity against lung (H 522) cancer cell line.

| SMILES | GI50 (A498) | GI50 (DU-145) | GI50 (M14) | GI50 (NCI/ADR-RES) | GI50 (SW-620) | GI50 (SK-OV-3) | GI50 (NCI-H522) |
| --- | --- | --- | --- | --- | --- | --- | --- |
| COc1cc([C@@H]2c3cc4c(cc3[C@H](O)[C@H]3COC(OCCF)[C@H]23)OCO4)cc(OC)c1OC (stereo not given in full) | 80 µM | 80 µM | 60 µM | 50 µM | 70 µM | > 100 µM | 80 µM |
| COc1cc([C@@H]2c3cc4c(cc3[C@@H](O)[C@H]3COC(CC(C)=O)[C@@H]23)OCO4)cc(OC)c1O (stereo not given in full) | 0.08 µM | 0.1 µM | 0.8 µM | 0.8 µM | 0.1 µM | 0.3 µM | 0.8 µM |
| COCCOC1OC[C@H]2[C@H]1[C@H](c1cc(OC)c(OC)c(OC)c1)c1cc3c(cc1[C@@H]2O)OCO3 (stereo not given in full) | 0.05 µM | 7 µM | > 100 µM | > 100 µM | 80 µM | 20 µM | 0.09 µM |
| COc1cc([C@@H]2c3cc4c(cc3[C@H](O)[C@H]3COC(CCO)[C@H]23)OCO4)cc(OC)c1OC (stereo not given in full) | 0.05 µM | 0.5 µM | > 100 µM | > 100 µM | > 100 µM | 0.8 µM | 0.05 µM |
| COC(=O)CC1OC[C@H]2[C@H]1[C@H](c1cc(OC)c(OC)c(OC)c1)c1cc3c(cc1[C@@H]2O)OCO3 (stereo not given in full) | < 0.01 µM | 60 µM | > 100 µM | 70 µM | 70 µM | 4 µM | 8 µM |
| COC(=O)CC1OC[C@H]2[C@H]1[C@H](c1cc(OC)c(O)c(OC)c1)c1cc3c(cc1[C@H]2O)OCO3 (stereo not given in full) | > 100 µM | > 100 µM | > 100 µM | 60 µM | 20 µM | 0.5 µM | 9 µM |
| COc1cc([C@@H]2c3cc4c(cc3[C@H](O)[C@H]3COC(CC(C)=O)[C@H]23)OCO4)cc(OC)c1OC (stereo not given in full) | 0.02 µM | 20 µM | 20 µM | 60 µM | 60 µM | 6 µM | 20 µM |
| COc1cc([C@@H]2c3cc4c(cc3[C@H](O)[C@H]3COC(OCCO)[C@H]23)OCO4)cc(OC)c1OC (stereo not given in full) | 0.01 µM | 20 µM | 60 µM | 70 µM | 70 µM | 0.09 µM | 10 µM |
| COc1cc([C@@H]2c3cc4c(cc3[C@@H](O[C@@H]3O[C@@H]5CO[C@@H](C)O[C@H]5[C@H](O)[C@H]3O)[C@H]3COC(=O)[C@H]23)OCO4)cc(OC)c1O [ETOPOSIDE] | 8 µM | 2 µM | < 0.01 µM | 25 µM | 90 µM | < 0.01 µM | 0.9 µM |
| COc1cc([C@@H]2c3cc4c(cc3[C@H](O)[C@H]3COC(=O)[C@H]23)OCO4)cc(OC)c1OC [PODOFILOX] | 0.08 µM | 0.04 µM | 0.07 µM | 0.6 µM | 2 µM | 0.9 µM | 0.7 µM |

From ChEMBL document CHEMBL1131813, “9-Deoxopodophyllotoxin derivatives as anti-cancer agents” (1999)
